Measured values reported in US20050163855A1, “Method of preparing low-crystallinity oltipraz or amorphous oltipraz” (CJ CORPORATION, priority 2004, published 2005).
In brackets after ≈: the same amount, converted by molar mass.

Key:
[1] = cited from earlier work

- solubility (physchem; Cremophor EL, organic solvent or mixture): 9.44 mg/mL (≈ 41.7 mM)
- solubility (physchem; Cremophor RH40, organic solvent or mixture): 10.7 mg/mL (≈ 47.2 mM)
- solubility (physchem; Dimethylisosorbide, organic solvent or mixture): 17.2 mg/mL (≈ 76.2 mM)
- solubility (physchem; Labrasol, organic solvent or mixture): 12.6 mg/mL (≈ 55.6 mM)
- solubility (physchem; N,N-dimethylformamide, organic solvent or mixture): 31.3 mg/mL (≈ 138 mM)
- solubility (physchem; N-methypyrrolidone, organic solvent or mixture): 13.7 mg/mL (≈ 60.3 mM)
- solubility (physchem; Polymethylene glycol 200, organic solvent or mixture): 7.99 mg/mL (≈ 35.3 mM)
- solubility (physchem; Polymethylene glycol 400, organic solvent or mixture): 10.5 mg/mL (≈ 46.5 mM)
- solubility (physchem; Polypropylene glycol, organic solvent or mixture): 0.57 mg/mL (≈ 2.52 mM)
- solubility (physchem; Tetraglycol, organic solvent or mixture): 13.6 mg/mL (≈ 59.9 mM)
- solubility (physchem; Transcutol, organic solvent or mixture): 10.3 mg/mL (≈ 45.7 mM)
- solubility (physchem; acetone, organic solvent or mixture): 4.05 mg/mL (≈ 17.9 mM)
- solubility (physchem; acetonitrile, organic solvent or mixture): 2.73 mg/mL (≈ 12.1 mM)
- solubility (physchem; chloroform, organic solvent or mixture): 28.6 mg/mL (≈ 126 mM)
- solubility (physchem; dimethyl sulfoxide, organic solvent or mixture): 29.1 mg/mL (≈ 129 mM)
- solubility (physchem; ethanol, organic solvent or mixture): 0.67 mg/mL (≈ 2.96 mM)
- solubility (physchem; methanol, organic solvent or mixture): 0.5 mg/mL (≈ 2.21 mM)
- solubility (physchem; methylene chloride, organic solvent or mixture): 7.6 mg/mL (≈ 33.6 mM)
Compound: Cc1c(-c2cnccn2)ssc1=S [oltipraz]
- water solubility [1]: ≤ 0.001 mg/mL
